Measurements published in patent US9840509B2, “Heterocyclic compounds” (CADILA HEALTHCARE LIMITED, priority 2014, dated 2017).

What was measured:
[1] = molecular target: T1, recombinant purified human BTK (Homo sapiens, UniProt Q06187); test: In vitro BTK kinase assay on ADP Glo platform; type: biochemical; conditions: 2 hr room temperature, read-out: In-vitro BTK inhibitory activity: IC50
T1 construct: purchased SignalChem, USA
Procedure, shortened: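 Recombinant human BTK (3 ng/reaction) with compound dilutions in Tris pH 7.5, MgCl2/MnCl2, BSA, DTT; started with 50 µM ATP (final) and polyGln4Tyr1 substrate, 2 h at room temperature. ADP formed detected by ADP-Glo luminescence; IC50 by nonlinear fit versus uninhibited enzyme as 100%.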

CYP 1A2 = molecular target: T2, CYP 1A2 (Homo sapiens, UniProt P05177); test: CYP inhibition in human liver microsomes, 1A2; type: in vitro ADME; conditions: pH 7.4, @ 10 μM concn
T2 construct: from tissue; host or cells: human liver microsomes
T2 sequence (P05177 1-516): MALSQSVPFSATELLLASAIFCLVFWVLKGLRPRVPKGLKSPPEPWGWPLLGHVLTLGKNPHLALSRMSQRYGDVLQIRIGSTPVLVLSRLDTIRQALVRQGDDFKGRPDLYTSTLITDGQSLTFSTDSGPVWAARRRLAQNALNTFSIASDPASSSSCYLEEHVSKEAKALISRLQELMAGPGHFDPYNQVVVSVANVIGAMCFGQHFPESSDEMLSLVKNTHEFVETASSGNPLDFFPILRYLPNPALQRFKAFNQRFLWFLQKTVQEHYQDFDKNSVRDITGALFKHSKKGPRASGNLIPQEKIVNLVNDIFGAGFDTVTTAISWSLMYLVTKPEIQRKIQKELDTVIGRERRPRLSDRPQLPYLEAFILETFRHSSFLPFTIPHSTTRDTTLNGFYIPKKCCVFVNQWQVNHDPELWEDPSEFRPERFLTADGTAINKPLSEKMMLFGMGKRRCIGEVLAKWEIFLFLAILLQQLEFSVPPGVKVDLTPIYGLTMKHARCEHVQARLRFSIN
Procedure, shortened: (§1)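 Test compounds at […] and 10 μM were incubated in duplicate with human liver microsomes, probe substrate and 1 mM NADPH in 100 mM phosphate buffer pH 7.4 at 37° C. Reactions were stopped with acetonitrile containing internal standard, and the marker-reaction metabolite was quantified by LC-MS/MS.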

CYP 2C8 = molecular target: T3, CYP 2C8 (Homo sapiens, UniProt P10632); test: CYP inhibition in human liver microsomes, 2C8; type: in vitro ADME; conditions: pH 7.4, @ 10 μM concn
T3 construct: from tissue; host or cells: human liver microsomes
T3 sequence (P10632 1-490): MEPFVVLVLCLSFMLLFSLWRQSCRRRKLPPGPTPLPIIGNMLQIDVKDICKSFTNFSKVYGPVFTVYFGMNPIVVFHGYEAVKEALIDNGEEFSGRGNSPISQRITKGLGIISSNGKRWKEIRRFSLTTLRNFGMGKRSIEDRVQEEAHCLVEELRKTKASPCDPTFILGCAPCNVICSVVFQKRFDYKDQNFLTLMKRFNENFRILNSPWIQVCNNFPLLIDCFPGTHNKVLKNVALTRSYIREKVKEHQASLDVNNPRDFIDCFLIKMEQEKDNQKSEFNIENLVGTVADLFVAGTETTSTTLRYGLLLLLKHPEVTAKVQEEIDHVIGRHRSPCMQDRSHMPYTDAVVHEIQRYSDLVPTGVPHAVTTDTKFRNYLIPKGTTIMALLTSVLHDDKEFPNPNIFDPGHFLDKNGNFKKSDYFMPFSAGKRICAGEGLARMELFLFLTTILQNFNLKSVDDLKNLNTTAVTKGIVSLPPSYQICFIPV
Procedure, shortened: as §1

CYP 2C9 = molecular target: T4, CYP 2C9 (Homo sapiens, UniProt P11712); test: CYP inhibition in human liver microsomes, 2C9; type: in vitro ADME; conditions: pH 7.4, @ 10 μM concn
T4 construct: from tissue; host or cells: human liver microsomes
Procedure, shortened: as §1

CYP 2C19 = molecular target: T5, CYP 2C19 (Homo sapiens, UniProt P33261); test: CYP inhibition in human liver microsomes, 2C19; type: in vitro ADME; conditions: pH 7.4, @ 10 μM concn
T5 construct: from tissue; host or cells: human liver microsomes
Procedure, shortened: as §1

CYP 2D6 = molecular target: T6, CYP 2D6 (Homo sapiens, UniProt P10635); test: CYP inhibition in human liver microsomes, 2D6; type: in vitro ADME; conditions: pH 7.4, @ 10 μM concn
T6 construct: from tissue; host or cells: human liver microsomes
Procedure, shortened: as §1

CYP 3A4 = molecular target: T7, CYP 3A4 (Homo sapiens, UniProt P08684); test: CYP inhibition in human liver microsomes, 3A4; type: in vitro ADME; conditions: pH 7.4, @ 10 μM concn
T7 construct: from tissue; host or cells: human liver microsomes
Procedure, shortened: as §1

T7 sequence (P08684 whole entry): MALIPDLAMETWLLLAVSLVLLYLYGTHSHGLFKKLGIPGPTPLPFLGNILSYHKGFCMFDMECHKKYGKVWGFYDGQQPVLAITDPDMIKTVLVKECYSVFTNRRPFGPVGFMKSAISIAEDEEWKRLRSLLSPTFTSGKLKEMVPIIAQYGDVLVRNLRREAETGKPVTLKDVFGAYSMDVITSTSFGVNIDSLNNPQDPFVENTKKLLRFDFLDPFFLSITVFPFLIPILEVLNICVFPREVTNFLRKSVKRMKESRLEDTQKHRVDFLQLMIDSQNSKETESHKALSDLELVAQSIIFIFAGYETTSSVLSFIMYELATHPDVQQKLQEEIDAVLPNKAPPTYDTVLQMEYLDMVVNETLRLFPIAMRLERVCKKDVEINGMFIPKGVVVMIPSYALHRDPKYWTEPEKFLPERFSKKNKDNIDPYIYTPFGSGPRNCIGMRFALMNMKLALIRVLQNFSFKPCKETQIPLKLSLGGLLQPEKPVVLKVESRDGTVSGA
T4 sequence (P11712 whole entry): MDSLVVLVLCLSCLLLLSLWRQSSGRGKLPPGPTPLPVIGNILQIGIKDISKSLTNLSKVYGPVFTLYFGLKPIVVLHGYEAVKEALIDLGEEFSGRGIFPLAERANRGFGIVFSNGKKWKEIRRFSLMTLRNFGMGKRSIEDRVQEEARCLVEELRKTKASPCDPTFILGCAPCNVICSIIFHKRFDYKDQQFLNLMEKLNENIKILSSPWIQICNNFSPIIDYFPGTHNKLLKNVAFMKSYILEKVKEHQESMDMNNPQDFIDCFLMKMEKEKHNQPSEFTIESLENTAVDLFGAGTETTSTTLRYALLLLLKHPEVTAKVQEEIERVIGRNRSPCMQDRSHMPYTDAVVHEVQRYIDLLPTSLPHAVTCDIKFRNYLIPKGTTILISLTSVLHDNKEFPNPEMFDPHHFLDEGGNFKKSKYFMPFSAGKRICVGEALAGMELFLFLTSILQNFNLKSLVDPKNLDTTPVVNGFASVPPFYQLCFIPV
T1 sequence (Q06187 whole entry): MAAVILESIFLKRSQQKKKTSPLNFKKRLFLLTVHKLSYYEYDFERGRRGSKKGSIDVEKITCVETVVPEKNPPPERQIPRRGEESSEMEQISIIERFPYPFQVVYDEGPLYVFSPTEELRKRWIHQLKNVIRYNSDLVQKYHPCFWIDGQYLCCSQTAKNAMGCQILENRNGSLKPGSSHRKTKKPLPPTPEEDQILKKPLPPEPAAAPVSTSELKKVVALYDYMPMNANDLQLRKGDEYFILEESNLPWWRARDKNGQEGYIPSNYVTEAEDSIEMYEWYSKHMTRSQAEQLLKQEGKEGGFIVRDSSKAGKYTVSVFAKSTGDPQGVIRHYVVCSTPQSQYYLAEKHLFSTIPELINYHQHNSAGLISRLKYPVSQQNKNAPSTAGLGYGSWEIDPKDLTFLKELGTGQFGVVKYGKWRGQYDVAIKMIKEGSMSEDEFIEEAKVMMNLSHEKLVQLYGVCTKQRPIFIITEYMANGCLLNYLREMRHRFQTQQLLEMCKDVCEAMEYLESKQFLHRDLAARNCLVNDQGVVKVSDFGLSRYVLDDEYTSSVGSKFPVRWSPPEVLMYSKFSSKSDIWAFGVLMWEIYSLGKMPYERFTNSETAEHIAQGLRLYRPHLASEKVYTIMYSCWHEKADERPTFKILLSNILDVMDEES
T6 sequence (P10635 whole entry): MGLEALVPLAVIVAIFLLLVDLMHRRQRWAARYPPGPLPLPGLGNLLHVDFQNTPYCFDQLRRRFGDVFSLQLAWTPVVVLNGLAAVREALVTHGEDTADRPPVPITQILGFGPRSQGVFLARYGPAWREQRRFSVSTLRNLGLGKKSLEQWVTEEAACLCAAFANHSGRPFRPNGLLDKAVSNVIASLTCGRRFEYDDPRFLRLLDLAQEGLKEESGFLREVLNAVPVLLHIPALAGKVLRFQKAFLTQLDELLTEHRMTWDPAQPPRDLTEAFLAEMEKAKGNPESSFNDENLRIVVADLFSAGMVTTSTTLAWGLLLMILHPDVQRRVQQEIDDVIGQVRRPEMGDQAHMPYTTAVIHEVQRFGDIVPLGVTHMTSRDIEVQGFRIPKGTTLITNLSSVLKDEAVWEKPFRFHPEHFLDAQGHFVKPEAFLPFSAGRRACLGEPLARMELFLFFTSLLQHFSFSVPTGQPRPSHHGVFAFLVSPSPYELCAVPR
T5 sequence (P33261 whole entry): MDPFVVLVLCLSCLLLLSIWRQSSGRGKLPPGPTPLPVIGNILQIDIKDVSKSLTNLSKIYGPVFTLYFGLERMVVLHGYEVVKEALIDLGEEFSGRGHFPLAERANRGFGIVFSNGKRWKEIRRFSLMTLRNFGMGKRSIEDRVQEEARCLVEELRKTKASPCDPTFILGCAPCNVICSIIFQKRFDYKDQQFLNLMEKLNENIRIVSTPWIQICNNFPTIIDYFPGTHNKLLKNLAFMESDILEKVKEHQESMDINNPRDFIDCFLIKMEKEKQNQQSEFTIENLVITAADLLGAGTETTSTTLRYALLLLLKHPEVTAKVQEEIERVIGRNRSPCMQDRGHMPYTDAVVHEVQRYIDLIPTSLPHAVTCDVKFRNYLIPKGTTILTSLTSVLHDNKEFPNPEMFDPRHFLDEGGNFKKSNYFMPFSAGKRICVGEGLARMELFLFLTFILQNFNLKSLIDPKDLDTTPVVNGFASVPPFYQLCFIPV

Row | Compound | IC50 [1] [nM] | inhibition at 10 μM (CYP 1A2) [%] | inhibition at 10 μM (CYP 2C8) [%] | inhibition at 10 μM (CYP 2C9) [%] | inhibition at 10 μM (CYP 2C19) [%] | inhibition at 10 μM (CYP 2D6) [%] | inhibition at 10 μM (CYP 3A4) [%]
1 | C=CC(=O)N1CC2CC(n3nc(-c4ccc5c(c4)OCO5)c4c(N)ncnc43)CC2C1 (stereo not shown) [Compound 15, 1-(5-(4-amino-3-(benzo[d] [1,3]dioxol-5-yl)-1H-pyrazolo[3,4-d]pyrimidin-1-yl)hexahydrocyclopenta[c]pyrrol-2(1H)-yl)prop-2-en-1-one] | 18 | < 50 | < 50 | < 50 | < 50 | < 50 | > 50
2 | C=CC(=O)N1CC2CC(n3nc(-c4ccc(-c5nnc(-c6ccccn6)o5)cc4)c4c(N)ncnc43)CC2C1 (stereo not shown) [Compound 26, 1-(5-(4-amino-3-(4-(5-(pyridin-2-yl)-1,3,4-oxadiazol-2-yl)phenyl)-1H-pyrazolo[3,4-d]pyrimidin-1-yl)hexahydrocyclopenta[c]pyrrol-2(1H)-yl)prop-2-en-1-one] | 1.1 | < 50 | < 50 | < 50 | < 50 | < 50 | < 50
3 | CN(C)C/C=C/C(=O)N1CC2CC(n3nc(-c4ccc(Oc5ccccc5)cc4)c4c(N)ncnc43)CC2C1 (stereo not shown) [Compound 24, (E)-1-(5-(4-amino-3-(4-phenoxyphenyl)-1H-pyrazolo[3,4-d]pyrimidin-1-yl)hexahydrocyclopenta[c]pyrrol-2(1H)-yl)-4-(dimethylamino)but-2-en-1-one] | 2.5 | < 50 | < 50 | < 50 | < 50 | < 50 | < 50
4 | C=CC(=O)N1CC2CC(n3nc(-c4ccc(-c5cnn(C)c5)cc4)c4c(N)ncnc43)CC2C1 (stereo not shown) [Compound 21, 1-(5-(4-amino-3-(4-(1-methyl-1H-pyrazol-4-yl)phenyl)-1H-pyrazolo [3,4-d]pyrimidin-1-yl)hexahydrocyclopenta[c]pyrrol-2(1H)-yl)prop-2-en-1-one] | 50 | > 50 | < 50 | < 50 | < 50 | < 50 | < 50

More lines, in order of falling IC50 [1], values ahead:

Row | IC50 [1] [nM] | inhibition at 10 μM (CYP 1A2) [%] | inhibition at 10 μM (CYP 2C8) [%] | inhibition at 10 μM (CYP 2C9) [%] | inhibition at 10 μM (CYP 2C19) [%] | inhibition at 10 μM (CYP 2D6) [%] | inhibition at 10 μM (CYP 3A4) [%] | Compound
5 | 10 | < 50 | < 50 | < 50 | < 50 | < 50 | > 50 | CN(C)C/C=C/C(=O)N1CC2CC(n3nc(-c4ccc(Oc5cccnc5)cc4)c4c(N)ncnc43)CC2C1 (stereo not shown) [Compound 53, (E)-1-(5-(4-amino-3-(4-(pyridin-3-yloxy)phenyl)-1H-pyrazolo[3,4-d]pyrimidin-1-yl)hexahydrocyclopenta[c]pyrrol-2(1H)-yl)-4-(dimethylamino)but-2-en-1-one]
6 | 1.7 | < 50 | < 50 | < 50 | < 50 | < 50 | < 50 | C=CC(=O)N1CC2CC(n3nc(-c4ccc(-c5nnc(C)o5)cc4)c4c(N)ncnc43)CC2C1 (stereo not shown) [Compound 16, 1-(5-(4-amino-3-(4-(5-methyl-1,3,4-oxadiazol-2-yl)phenyl)-1H-pyrazolo[3,4-d]pyrimidin-1-yl)hexahydrocyclopenta[c]pyrrol-2(1H)-yl)prop-2-en-1-one]
7 | 1 | < 50 | < 50 | < 50 | < 50 | < 50 | < 50 | C=CC(=O)N1CC2CC(n3nc(-c4ccc(C(=O)Nc5cnccn5)cc4)c4c(N)ncnc43)CC2C1 (stereo not shown) [Compound 37, 4-(1-(2-acryloyloctahydrocyclopenta[c]pyrrol-5-yl)-4-amino-1H-pyrazolo[3,4-d]pyrimidin-3-yl)-N-(pyrazin-2-yl)benzamide]
